Test results published in patent US20070149515A1, “6-(2,4,6-Trifluorophenyl)-triazolopyrimidines, method for the production thereof, use thereof for controlling harmful fungi, and substances containing the same” (BASF Aktiengesellschaft, priority 2003, published 2007).

Experiments:
Sphaerotheca fuliginea = assay: Protective application against powdery mildew on cucumber leaves; type: in vivo; conditions: 63 ppm, sprayed to runoff on cucumber seedlings 'Chinese Snake'; inoculated 20 hours after drying; assessed visually after 7 days; untreated plants 100% infected
Procedure: The active compounds were prepared separately or together as a stock solution with 0.25% by weight of active compound in acetone or DMSO. 1% by weight of the emulsifier Uniperol® EL (wetting agent with an emulsifying and dispersing action based on ethoxylated alkylphenols) was added to this solution and appropriately diluted with water to the desired concentration. Use example 1—Activity in protective application against powdery mildew on cucumber leaves caused by Sphaerotheca fuliginea Leaves of pot-grown cucumber seedlings of the variety “Chinese Snake” in the cotyledon stage were sprayed to runoff point with an aqueous suspension in the active compound concentration given below. 20 hours after the spray coating had dried on, the plants were inoculated with an aqueous suspension of spores of powdery mildew of cucumber (Sphaerotheca fuliginea). The plants were subsequently cultivated for 7 days in a greenhouse at temperatures of between. 20 and 24° C. and a relative atmospheric humidity of 60 to 80%. The extent of mildew development was then determined visually in % of infection of the cotyledon area.

Pyrenophora teres = assay: 1 day protective application against net blotch of barley; type: in vivo; conditions: 63 ppm, sprayed to runoff on barley seedlings; inoculated 24 hours after drying; assessed visually after 6 days; untreated plants 90% infected
Procedure: The active compounds were prepared separately or together as a stock solution with 0.25% by weight of active compound in acetone or DMSO. 1% by weight of the emulsifier Uniperol® EL (wetting agent with an emulsifying and dispersing action based on ethoxylated alkylphenols) was added to this solution and appropriately diluted with water to the desired concentration. Use example 2—Activity in 1 day protective application against net blotch of barley caused by Pyrenophora teres Leaves of pot-grown barley seedlings were sprayed to runoff point with an aqueous suspension in the active compound concentration given below. 24 hours after the spray coating had dried on, the test plants were inoculated with an aqueous suspension of spores of Pyrenophora [syn. Drechslera] teres, the causative agent of net blotch. The test plants were subsequently placed in a greenhouse at temperatures of between 20 and 24° C. and a relative atmospheric humidity of 95 to 100%. After 6 days, the extent of development of the disease was determined visually in % of infection of the total leaf area.

SMILES | extent of mildew development in % of infection of the cotyledon area (Sphaerotheca fuliginea) | extent of development of the disease in % of infection of the total leaf area (Pyrenophora teres)
CC1CCN(c2c(-c3c(F)cc(F)cc3F)c(C#N)nc3ncnn23)CC1 [Compound I-2, 5-cyano-6-(2,4,6-trifluorophenyl)-7-(4-methylpiperidinyl)[1,2,4]triazolo[1,5a]pyrimidine] | no infection | no infection
COc1nc2ncnn2c(N2CCC(C)CC2)c1-c1c(F)cc(F)cc1F [Compound I-5, 5-methoxy-6-(2,4,6-trifluorophenyl)-7-(4-methylpiperidinyl)[1,2,4]triazolo[1,5a]pyrimidine] | no infection | no infection
